In article PMC8117417, “Novel Trifluoromethyl Pyrimidinone Compounds With Activity Against Mycobacterium tuberculosis” (Frontiers in Chemistry, 2021):
Values after ≈ are worked out from the molar mass of the structure shown. Values joined by “and” are separate entries in the source; they are usually repeats but may differ in a detail not shown here. Identical values can stand only once.

Assays:
[1] = tested on: Saccharomyces cerevisiae Y187; assay: Spectrum: MIC99 on solid medium, agar serial dilution; type: cell-based; parameters: unit not given here; details: minimum concentration required to reduce CFUs by 99%, values of two independent runs
M. tuberculosis H37Rv = assay: Minimum inhibitory concentration (IC90) against fluorescent M. tuberculosis in liquid culture; details: for MIC: MTB IC90 assay, Figure 1 primary hits and reference drugs in this assay; for IC90: read-out: MTB IC90
K. pneumoniae = assay: Spectrum: MIC99 on solid medium, agar serial dilution; type: cell-based; parameters: unit not given here; details: minimum concentration required to reduce CFUs by 99%, two independent runs
Procedure: Minimum inhibitory concentration to inhibit growth of 99% (MIC99) on solid medium was determined using the agar serial dilution method. Late log phase cultures were plated at ~10^5 colony-forming units (CFU)/mL onto solid medium containing 2-fold serial dilutions of compounds. The MIC99 is defined as the lowest concentration with ≤1% growth.

[2] = tested on: Bacillus subtilis Marburg; assay: as above; type: cell-based; parameters: unit not given here; details: minimum concentration required to reduce CFUs by 99%, values of two independent runs
[3] = tested on: Pseudomonas aeruginosa BAA 47; assay: as above; type: cell-based; parameters: unit not given here; details: minimum concentration required to reduce CFUs by 99%, two independent runs
HepG2 human liver cells = assay: Cytotoxicity against HepG2 cells (CellTiter-Glo); type: cell-based; details: concentration required to inhibit growth of HepG2 cells by 50%, 72 h exposure
Procedure: Cytotoxicity was measured after 72 h of compound exposure at 37°C and 5% CO2 using CellTiter-Glo (Promega).

Escherichia coli DH5α = assay: Spectrum: MIC99 on solid medium, agar serial dilution; type: cell-based; parameters: unit not given here; details: minimum concentration required to reduce CFUs by 99%, two independent runs
[4] = tested on: Mycobacterium smegmatis mc^2155; assay: as above; type: cell-based; parameters: unit not given here; details: minimum concentration required to reduce CFUs by 99%, two independent runs
[5] = tested on: Staphylococcus aureus RN4220; assay: as above; type: cell-based; parameters: unit not given here; details: minimum concentration required to reduce CFUs by 99%, values of two independent runs
[6] = concentration required to inhibit M. tuberculosis growth by 90%, aerobic culture, 5 days, 7H9-OADC-Tw

| SMILES | MIC99 S. cerevisiae [1] | MIC (M. tuberculosis H37Rv) [µM] | IC90 (M. tuberculosis H37Rv; [6]) [µM] | MIC99 K. pneumoniae (K. pneumoniae) | MIC99 B. subtilis [2] | MIC99 P. aeruginosa [3] | IC50 (HepG2 human liver cells; Homo sapiens, HepG2, 72 h) [µM] | MIC99 E. coli (Escherichia coli DH5α) | MIC99 M. smegmatis [4] | MIC99 S. aureus [5] | melting point [°C] | IC50 (HepG2 human liver cells) [µM] | MTB IC90 (M. tuberculosis H37Rv; [6]) | HepG2 IC50 (HepG2 human liver cells) |
| --- | --- | --- | --- | --- | --- | --- | --- | --- | --- | --- | --- | --- | --- | --- |
| O=c1[nH]c(-c2ccccn2)nc(C(F)(F)F)c1Cc1ccc(F)cc1 [Compound 5, 5-(4-Fluorobenzyl)-2-(Pyridin-2-yl)-6-(Trifluoromethyl)Pyrimidin-4(3H)-One] | 3.1, 3.1 | 1.7 ± 0.41 (≈ 0.594 µg/mL) | 1.7 ± 0.41 | >100 | 12.5 and 6.3 | >100 | 3.2 ± 1.5 | >100 | >100 | 1.6, 1.6 | 183 to 185 | – | – | – |
| Cc1c(C(F)(F)F)nc(-c2ccccn2)[nH]c1=O [Compound 10, 5-Methyl-2-(Pyridin-2-yl)-6-(Trifluoromethyl)Pyrimidin-4(3H)-One] | 6.3 and 12.5 | 2.9 ± 0.47 (≈ 0.74 µg/mL) | 2.9 | >100 | 12.5, 12.5 | >100 | 7.3 | >100 | 25 | 12.5, 12.5 | – | 5.4 ± 3.1 | – | – |
| Cc1c(C(F)(F)F)nc(-c2ncccc2O)[nH]c1=O [Compound 33, 2-(3-Hydroxypyridin-2-yl)-5-Methyl-6-(Trifluoromethyl)Pyrimidin-4(3H)-One] | 3.1, 3.1 | – | 2.5 ± 1.1 | >100 | – | >100 | 3.2 ± 1.6 | >100 | 25 | 3.1, 3.1 | 176 to 178 | – | – | – |
| Cc1c(C(F)(F)F)nc(-c2ccccc2F)[nH]c1=O [Compound 36, 2-(2-Fluorophenyl)-5-Methyl-6-(Trifluoromethyl)pyrimidin-4(3H)-One] | – | – | > 20 | – | – | – | > 100 | – | – | – | 139 to 141 | – | – | – |
| Cc1c(C(F)(F)F)nc(-c2ccccc2Cl)[nH]c1=O [Compound 37, 2-(2-Chlorophenyl)-5-Methyl-6-(Trifluoromethyl)Pyrimidin-4(3H)-One] | – | – | > 20 | – | – | – | 86 ± 24 | – | – | – | 165 to 167 | – | – | – |
| COc1cccnc1-c1nc(C(F)(F)F)c(C)c(=O)[nH]1 [Compound 39, 2-(3-Methoxypyridin-2-yl)-5-Methyl-6-(Trifluoromethyl)Pyrimidin-4(3H)-One] | – | – | > 20 | – | – | – | > 100 | – | – | – | 164 to 165 | – | – | – |
| Cc1c(C(F)(F)F)nc(C2CCCCC2)[nH]c1=O [Compound 40, 2-Cyclohexyl-5-Methyl-6-(Trifluoromethyl)Pyrimidin-4(3H)-One] | – | – | > 20 | – | – | – | > 100 | – | – | – | 169 to 170 | – | – | – |
| Cc1c(C(F)(F)F)nc(-c2ncccn2)[nH]c1=O [Compound 41, 5-Methyl-6-(Trifluoromethyl)-[2,2′-Bipyrimidin]-4(3H)-One] | – | – | > 20 | – | – | – | > 100 | – | – | – | 229 to 230 | – | – | – |
| Cc1c(C(F)(F)F)nc(-c2ccccc2C(F)(F)F)[nH]c1=O [Compound 42, 5-Methyl-6-(Trifluoromethyl)-2-(2-(Trifluoromethyl)Phenyl)pyrimidin-4(3H)-One] | – | – | > 20 | – | – | – | > 100 | – | – | – | 168 to 170 | – | – | – |
| Cc1cccc(C)c1-c1nc(C(F)(F)F)c(C)c(=O)[nH]1 [Compound 43, 2-(2,6-Dimethylphenyl)-5-Methyl-6-(Trifluoromethyl)Pyrimidin-4(3H)-One] | – | – | > 20 | – | – | – | > 100 | – | – | – | 174 to 175 | – | no antibacterial activity | no cytotoxicity |
| Cc1c(C(F)(F)F)nc(-c2ccccc2OC(F)(F)F)[nH]c1=O [Compound 44, 5-Methyl-2-(2-(Trifluoromethoxy)Phenyl)-6-(Trifluoromethyl)Pyrimidin-4(3H)-One] | – | – | > 20 | – | – | – | > 100 | – | – | – | 167 to 168 | – | – | – |
| Cc1c(C(F)(F)F)nc(-c2ccccc2O)[nH]c1=O [Compound 46, 2-(2-Hydroxyphenyl)-5-Methyl-6-(Trifluoromethyl)Pyrimidin-4(3H)-One] | – | – | > 20 | – | – | – | 44 ± 7.8 | – | – | – | 270 to 271 | – | – | – |
| Cc1c(Cc2ccccc2)nc(-c2ccccn2)[nH]c1=O [Compound 47, 6-Benzyl-5-Methyl-2-(Pyridin-2-yl)Pyrimidin-4(3H)-One] | – | – | 5.7 ± 0.14 | – | – | – | 9.8 ± 5.7 | – | – | – | 120 to 121 | – | – | – |
| Cc1c(-c2ccccc2)nc(-c2ccccn2)[nH]c1=O [Compound 48, 5-Methyl-6-Phenyl-2-(Pyridin-2-yl)Pyrimidin-4(3H)-One] | – | – | 9.4 ± 0.67 | – | – | – | 9.7 ± 5.5 | – | – | – | 140 to 141 | – | – | – |
| Cc1cnc(-c2ccccn2)[nH]c1=O [Compound 50, 5-Methyl-2-(Pyridin-2-yl)Pyrimidin-4(3H)-One] | – | – | > 20 | – | – | – | 50 ± 13 | – | – | – | 148 to 149 | – | – | – |
| O=c1[nH]c(-c2ccccn2)nc(C(F)(F)F)c1Cc1ccccc1 [Compound 52, 5-Benzyl-2-(Pyridin-2-yl)-6-(Trifluoromethyl)Pyrimidin-4(3H)-One] | – | – | 2.8 ± 0.78 | – | – | – | 7.3 ± 4.2 | – | – | – | 173 to 174 | – | – | – |
| O=c1[nH]c(-c2ccccn2)nc(C(F)(F)F)c1-c1ccc(F)cc1 [Compound 53, 5-(4-Fluorophenyl)-2-(Pyridin-2-yl)-6-(Trifluoromethyl)Pyrimidin-4(3H)-One] | – | – | 3.8 ± 1.6 | >100 | 6.3, 6.3 | >100 | 11 ± 6.9 | >100 | >100 | 3.1, 3.1 | 217 to 220 | – | – | – |
| O=c1[nH]c(-c2ccccn2)nc(C(F)(F)F)c1-c1ccccc1 [Compound 54, 5-Phenyl-2-(Pyridin-2-yl)-6-(Trifluoromethyl)Pyrimidin-4(3H)-One] | – | – | 4.5 ± 0.14 | – | – | – | 11 | – | – | – | 258 to 259 | 10 ± 6.4 | – | – |
| CCc1c(C(F)(F)F)nc(-c2ccccn2)[nH]c1=O [Compound 55, 5-Ethyl-2-(Pyridin-2-yl)-6-(Trifluoromethyl)Pyrimidin-4(3H)-One] | 3.1 and 5.0 | – | 3.7 ± 0.26 | >100 | 6.3 and 5.0 | >100 | 6.1 ± 1.3 | >100 | 100 | 6.3 and 5.0 | 122 to 124 | – | – | – |
| O=c1[nH]c(-c2ccccn2)nc(C(F)(F)F)c1C1CCCCC1 [Compound 58, 5-Cyclohexyl-2-(Pyridin-2-yl)-6-(Trifluoromethyl)Pyrimidin-4(3H)-One] | – | – | 4.1 ± 0.28 | – | – | – | 2.9 ± 0.28 | – | – | – | 220 to 221 | – | – | – |
